Entries after “also recorded” stand apart in the source; their conditions may differ. Read-outs that look alike come from different tables or passages of the source. Marks after values point to notes of the source that are not given here.
Columns and labels:
[1] = test system: maximal electroshock (MES) test; conditions: rat, cited from earlier work
[2] = test system: tactile allodynia in rats with SNL neuropathy; test: Tactile allodynia (von Frey filaments) in the spinal nerve ligation (SNL) model of neuropathic pain; format: in vivo, rat; conditions: for ED50: Rattus norvegicus, 1 h, read-out: ED50 (tactile allodynia threshold)
Protocol: The effect on neuropathic pain (tactile allodynia) was measured 5-6 days following operation as disclosed above. Rats responding to mechanical stimuli of 10 g or less (in the operated leg) were eligible for the study and were included in the drug administration regime.
Briefly, under ketamine-xylazine anesthesia the rat was placed in a prone position and the left paraspinal muscles were separated from spinous processes at the L4-S2 level. Part of the L6 transverse process was removed and the L4-L6 spinal nerves were identified. The L5-L6 spinal nerves were isolated and tightly ligated and cut, distal to the dorsal root ganglion and proximal to the formation of the sciatic nerve. Following complete homeostasis the wound was sutured.
A volume of 4 ml/kg (volume of injected suspension/rat body weight) was then injected to the rats. […] The three drugs and the control vehicle were administered i.p. (intraperitoneally) to rats at postoperative days 7, 14 and 21 in a double blind randomized crossover manner.
The rat was placed on a metal mesh floor covered with a transparent plastic dome, a period of acclimatization was allowed prior to testing. VFFs were applied from underneath the mesh floor to the plantar surface of the foot. Each trial consisted of repeated applications of each of the VFFs in an ascending order for 5 times, each for a period of 1 second. testing between two consecutive ascending VFFs was separated by period of 2 min. If the rat withdrew the foot at least 3 times out of 5 at a specific VFF no further ascending filaments were tested and this filament was considered as a withdrawal threshold (response). Mechanical stimulus trials with the series of ascending VFF were repeated 2 times for a given time point. The repeated measurements were averaged and taken as the paw withdrawal threshold on a given time point.
The absolute threshold and the difference in the allodynic threshold (time point minus baseline) values were tested using Mann-Whitney Test and Kruskal-Wallis Nonparametric test (two tailed) followed by Dunn's Multiple comparison test. The ED50 (median effective dose) was calculated by using Probit analysis method.
Briefly, under ketamine-xylazine anesthesia (85 mg kg^−1, i.p and 13 mg kg^−1, i.p, respectively) rats were placed in a prone position and paraspinal muscles on the left were separated from the L4-S2 spinous processes. Part of the L6 transverse process was removed and the underlying L4-L6 spinal nerves were identified. The L5 and L6 spinal nerves were isolated, tightly ligated with 5-0 silk, and cut just distal to the ligature. The ligature was approximately 8 mm distal to the corresponding dorsal root ganglion (DRG). Following complete homeostasis the wound was sutured in layers, the skin closed with Michel clips, topical bacteriostatic power was applied, and 20000 units of duplo-penicillin was injected intramuscularly (i.m.).
We used a set of 9 nylon von Frey monofilaments (VFF, Semmes-Weinstein monofilaments, Stoelting, Wood Dale, Ill., USA) to quantify foot withdrawal in response to normally innocuous tactile stimuli. […] Forces were calibrated by lowering filaments onto the pan of an electronic balance until they just bent.
Rats were placed on a raised wire mesh screen (gaps 4 mm×4 mm), which allowed access to the plantar surface of the hindpaw from below. They were covered with a transparent plastic dome, 13 cm high, which prevented rearing on the hindlimbs. A period of 20 min was allowed for acclimation prior to sensory testing. The mid-plantar hindpaw skin just caudal to the footpads, half way between medial and lateral edges of the foot, was subjected to a series of 5 brief probes, spaced at about 1 s. Each such stimulus was sufficient to just bend the filament. Testing began with the filament with the weakest initial bending force (0.6 g). […] Response threshold was the bending force of the first monofilament in the series that evoked a criterion ≧⅗ responses.

[3] = test system: maximal electroshock (MES) test; test: Anticonvulsant activity, maximal electroshock (MES) test; format: in vivo; conditions: different study, data not shown
Description: Pain 73, 223-230); Blom, 1962 (BLOM, S. (1962). Trigeminal neuralgia: its treatment with a new anticonvulsant drug. Lancet; 1, 839-840); Rogawski & Loscher, 2004b (ROGAWSKI, M. A., & LOSCHER, W. (2004b). The neurobiology of antiepileptic drugs for the treatment of nonepileptic conditions. Nat. Med., 10, 685-692)). The availability of ED50 data for a series of new anticonvulsant isomers and analogues of VPD (valpromide) provides an opportunity for testing this hypothesis. […] Philadelphia: Lippincott Williams & Wilkins)).

[4] = cited from earlier work
[5] = test system: motor performance (rotarod test); test: Neurological motor dysfunction tests (accelerating rotarod, observation for sedation)
Protocol: On the day of testing, a baseline response was obtained, and rats were subsequently administered drug or vehicle. […] In addition, we examined our rats individually for signs of motor dysfunction and sedation as assessed by posture and gate during spontaneous and induced movement, grooming, chewing, stepping reflex, and startle reflex evoked by tapping on the cage.
For each drug and dose, attenuation of tactile allodynia (threshold measured in g) was measured. […] These areas under the response curve values for every group of rats per dose were evaluated against vehicle treatment using the nonparametric Wilcoxon one tailed test (dose of drug tested vs. vehicle on the same treatment). […] A p value <0.05 was considered statistically significant.

[6] = test system: tactile allodynia in rats with SNL neuropathy; conditions: i.p., rat; literature data (footnoted); cited from earlier work
[7] = test system: neural tube defects (NTDs); conditions: cited from earlier work
[8] = p.o., taken from previous studies
[9] = i.p., rat, 60 min post injection, DID at 120 min

CCCC(CCC)C(=O)NC [MVPD, N-methyl-valpromide, reference compound]
MES-ED50 [1, 8]: 65 mg/kg | SNL-ED50 [2, 9]: >120 mg/kg

CCC(C)C(CC)C(=O)O (stereo not shown) [VCA, 2-ethyl-3-methyl-pentanoic acid]
SNL-ED50 [2, 9]: >300 mg/kg

CC1(C)C(C(N)=O)C1(C)C [TMCD, 2,2,3,3-tetramethylcyclopropanecarboxamide]
anticonvulsant activity in the rat-MES test [3]: without any anticonvulsant activity | ED50 ([2]; ip): 84.5 mg/kg | antiallodynic effect / effectiveness for treating neuropathic pain ([2]; rat, in vivo): exhibit antiallodynic effect; also recorded: effective for treating neuropathic pain | dose dependence of the antiallodynic effect ([2]; rat, in vivo, ip): in a dose dependent manner | time of maximal effect after administration ([2]; rat, in vivo, ip): 60 min

CCCC(CCC)C(N)=O [VPD, valpromide, reference compound]
MES-ED50 [1, 8]: 32^b mg kg^−1 | SNL-ED50 [2, 9]: 61 mg/kg | Brain-to-plasma ratio ([4]; literature data): 0.84^c | neurological motor dysfunction or sedation at the highest drug dose tested ([5]; rat, in vivo): not sufficient to cause neurological motor dysfunction or sedation

NC(=O)N1c2ccccc2C=Cc2ccccc21 [CBZ, carbamazepine]
MES-ED50 [1, 8]: 5.4^a mg kg^−1 | SNL-ED50 [6]: >30^c mg kg^−1 | Brain-to-plasma ratio ([4]; literature data): 1.0^i

CC1(C)C(C(=O)O)C1(C)C [TMCA, 2,2,3,3-tetramethylcyclopropanecarboxylic acid]
anticonvulsant activity in the rat-MES test [3]: without any anticonvulsant activity | antiallodynic effect / effectiveness for treating neuropathic pain ([2]; SNL model, rat): exhibit antiallodynic effect

CCC(C)C(CC)C(N)=O (stereo not shown) [VCD, 2-ethyl-3-methyl-pentanoic acid amide]
teratogenicity ([7]; literature): distinctly less teratogenic than VPA | MES-ED50 [1, 8]: 29^c mg kg^−1 | ED50 ([2]; ip): 52.3 mg/kg | dose dependence of the antiallodynic effect ([2]; i.p., rat): in a dose dependent manner | antiallodynic effect / effectiveness for treating neuropathic pain ([2]; rat, in vivo): effective for treating neuropathic pain | SNL-ED50 ([2]; rat, in vivo, ip): 52 mg/kg | time of maximal effect after administration ([2]; rat, in vivo, ip): 60 min | neurological motor dysfunction or sedation at the highest drug dose tested ([5]; highest drug dose tested, normal rats): not sufficient to cause neurological motor dysfunction or sedation

NCC1(CC(=O)O)CCCCC1 [GBP, gabapentin]
MES-ED50 ([1]; in vivo, po): 14.8^a mg kg^−1 | SNL-ED50 [6]: 34^d mg kg^−1 | Brain-to-plasma ratio ([4]; rat, in vivo): 0.85^e

Nc1nnc(-c2cccc(Cl)c2Cl)c(N)n1 [LTG, lamotrigine]
MES-ED50 [1, 8]: 1.3^a mg kg^−1 | SNL-ED50 [6]: >100^d mg kg^−1 | Brain-to-plasma ratio ([4]; literature data): 0.4^h

CC(C)C(C(=O)O)C(C)C [DIA, diisopropylacetic acid]
antiallodynic effect / effectiveness for treating neuropathic pain ([2]; rat, in vivo): effective for treating neuropathic pain | SNL-ED50 ([2]; rat, in vivo, ip): >300 mg/kg | lowest effective dose (significant increase of the allodynic threshold vs vehicle) ([2]; rat, in vivo, ip): 300 mg/kg | rats regarded as protected at the highest dose ([2]; rat, in vivo, ip): 25%

NC(=O)OCC(COC(N)=O)c1ccccc1 [FBM, felbamate]
MES-ED50 [1, 8]: 25.3^a mg kg^−1 | SNL-ED50 [6]: >600^d mg kg^−1 | Brain-to-plasma ratio ([4]; literature data): 0.64^f

CNC(=O)C1C(C)(C)C1(C)C [M-TMCD, N-methyl-2,2,3,3-tetramethylcyclopropanecarboxamide]
teratogenicity ([7]; in vivo): lack of teratogenicity | ED50 ([2]; ip): 41 mg/kg | antiallodynic effect / effectiveness for treating neuropathic pain ([2]; rat, in vivo): effective for treating neuropathic pain | dose dependence of the antiallodynic effect ([2]; rat, in vivo, ip): in a dose dependent manner | time of maximal effect after administration ([2]; rat, in vivo, ip): 60 min

From patent publication US20100160443A1, “COMPOUNDS USEFUL FOR TREATING NEUROLOGICAL DISORDERS” (Yissum Research Development Company of The Hebrew …, priority 2003, published 2010)
